PMC9027111, “Morphing Natural Product Platensimycin via Heck, Sonogashira, and One-Pot Sonogashira/Cycloaddition Reactions to Produce Antibiotics with In Vivo Activity” (Antibiotics, 2022)
≈ marks a conversion by molar mass, not a printed value. Like-named read-outs stand apart in the source and are kept apart here.

Legend:
[1] = test system: S. aureus ATCC 29213; assay: MIC determination (LB agar dilution), S. aureus ATCC 29213; type: cell-based; details: Staphylococcus aureus, ATCC29213, at least two replicates
Method: (§1) All of the tested compounds were prepared to different concentrations with methanol, and 150 μL of the respective methanol solution was used to mix with 15 mL LB (Luria–Bertani) medium with 1% agar in each Petri dish. Linezolid and PTM were used as reference compounds for comparison. In vitro bioassay for compounds was carried out using clinical strains of S. aureus, E. coli, and Klebsilla pneumoniae. The bacteria were cultivated in LB medium and incubated for 16 h at 37 °C, 250 rpm. The resulting bacteria were diluted to approximate 0.25 at OD600, which were further diluted 10_4-fold. The diluted bacteria (2 μL) were added to Petri dish containing the respective compounds. The resulting Petri dishes were incubated for 16 h at 37 °C. The determination of MIC is the concentration of Petri dishes with no visible growth of bacteria.

[2] = test system: MSSA 1; assay: MIC determination (LB agar dilution), clinical MSSA strain 1; type: cell-based; details: Staphylococcus aureus, at least two replicates
Method: as §1

[3] = test system: MSSA 2; assay: MIC determination (LB agar dilution), clinical MSSA strain 2; type: cell-based; details: Staphylococcus aureus, at least two replicates
Method: as §1

[4] = test system: MRSA 3; assay: MIC determination (LB agar dilution), clinical MRSA strain 3; type: cell-based; details: Staphylococcus aureus, at least two replicates
Method: as §1

[5] = test system: MRSA 4; assay: MIC determination (LB agar dilution), clinical MRSA strain 4; type: cell-based; details: Staphylococcus aureus, at least two replicates
Method: as §1

[6] = Metabolic stability assay in pooled human liver microsomes; type: in vitro ADME; details: pH 7.4, 37 °C, NADPH, read-out: Half-Life in Human Hepatic Microsomes
Method: Each compound was incubated in duplicate with pooled human liver microsomes at 37 °C. The tested compounds were pre-incubated with pooled human liver microsomes in phosphate buffer (pH 7.4) for 5 min in a shaking water bath at 37 °C. The reaction was initiated by adding a NADPH-generating system and incubated for 0, 15, 30, 45, and 60 min. The reaction was stopped by transferring the incubation mixture to CH3CN/MeOH. Samples were then mixed and centrifuged. Supernatants were used for HPLC–MS/MS analysis. Data were calculated as percent parent compounds remaining by assuming zero-minute time point peak area ratio (analyte/IS) as 100% and dividing remaining time point peak area ratios by the zero-minute time point peak area ratio. Data were subjected to fit a first-order decay model to calculate both the slope and half-life.

[7] = Plasma protein binding by equilibrium dialysis; type: in vitro ADME; details: 37 °C
Method: Equilibrium dialysis was used to determine the plasma protein binding. All of the test compounds were treated in triplicate by RED Rapid Equilibrium Dialysis Device (Thermo Scientific, Waltham, MA, USA). In brief, the initial compound concentration (5 μM) in the plasma chamber was first set, followed by the addition of phosphate buffered saline (PBS) to the receiver chamber. The Equilibrium Dialysis Device was allowed to shake for 6 h in a 37 °C incubator. Then, 25 μL solution was sampled from the plasma and PBS chambers, respectively, and they were diluted with either blank PBS or plasma to achieve a 1:1 ratio of plasma: PBS for all samples. The concentrations of the tested compounds in the plasma and PBS chambers were determined by LC–MS/MS. The fraction bound was calculated as ([plasma]—[PBS])/[plasma].

[8] = test system: MRSA; type: in vivo; details: for survival rate of the infected mice: 7 days; for survival of infected mice: tracked 7 days, n = 5
[9] = test system: MRSA; assay: Mouse skin infection with MRSA; type: in vivo, BABL/c mice
Method: Mouse MRSA skin infection study was performed as described before. Female BABL/c mice (20–22 g, 7-weeks old) were anesthetized by intraperitoneal injection of 4% chloral hydrate (200 μL), and the hair of mice back surface was removed and washed with povidone iodine–propanol solution. A gauze (15 × 15 mm) was preheated in boiling water (90 °C) for 10 min, and then placed on the back of each mouse for 40 s to generate the burns. Next, the burn was bound with sterile gauze and infected with 1 × 10^8 colony-forming units (CFU) of MRSA. An open wound was witnessed at the burns after 48 h post infection. The infected mice were then divided into three groups (5 per group). A4 (200 μg) was formulated into 2% ointment consisting of 1.4% carbomer, 1.4% triethanolamine, 14% propanediol, 14% glycerinum, and 1% azone. Mupirocin (2% w/w) were used as the positive control, while vehicle used as negative control. All mice were treated twice a day for 7 days. Mice were euthanized after 24 h of the last treatment, and the wound area was slightly swabbed with 70% ethanol. Wound area (1 cm^2) was excised, homogenized, and plated onto TSB agar plates to count viable bacteria. Other skin biopsy specimens removed from the wounds were stored at 4% paraformaldehyde solution to be used for hematoxylin and eosin (HE) staining.

[10] = Stability of A4 in LB agar; type: physicochemical; details: 8 μg mL−1 in LB agar, 37 °C, 16 h, UPLC
Method: Figure S44. Analysis of the stability of A4 from LB agar. Compound A4 (0.1 mg mL−1)
were diluted in 5 mL of LB agar (1.5% v/v) to 8 μg mL−1, and the LB agar plates were
then incubated at 37 °C for 16 h. The LB agar containing A4 was extracted by DCM (3 ×
10 mL), dried with anhydrous Na2SO4 and concentrated in vacuum. The resulting
extracts were analysed by Ultra-Performance Liquid Chromatography.
(1 picture or pasted object on this page, not shown here)

CC(C)(C)OC(=O)C=CC1=CC23CC4CC(OC4(C)C2)C3C(C)(CCC(=O)Nc2c(O)ccc(C(=O)O)c2O)C1=O (stereo not drawn) [A4]
MIC [1]: 1 µg/mL (≈ 1.76 µM)
MIC [2]: 1 µg/mL (≈ 1.76 µM)
MIC [3]: 1 µg/mL (≈ 1.76 µM)
MIC [4]: 1 µg/mL (≈ 1.76 µM)
MIC [5]: 1 µg/mL (≈ 1.76 µM)
half-life [6]: 26 min
Plasma Protein Binding Bound % ([7]; 5 μM, 6 h): 98.3%
fraction unbound at 6 h, 5 μM ([7]; plasma, read-out: Plasma Protein Binding Free %): 0.017
survival rate of the infected mice ([8]; 5 mg/kg intraperitoneal at 1 h and 5 h after infection): 60%
survival of infected mice ([8]; 10 mg/kg intraperitoneal at 1 h and 5 h after infection): 60%
survival rate of the infected mice ([8]; 20 mg/kg intraperitoneal at 1 h and 5 h after infection): 80%
survival rate of the infected mice ([8]; 30 mg/kg intraperitoneal at 1 h and 5 h after infection): 60%
survival of infected mice ([8]; 50 mg/kg intraperitoneal at 1 h and 5 h after infection): 20%
survival of infected mice after oral administration ([8]; 30 and 50 mg/kg by oral gavage): most of the treated mice survived within 48 h
reduction of MRSA on the skin compared to untreated mice ([9]; 2 mg topical twice a day for 7 days): ~ 790 fold
load of S. aureus on treated skin ([9]; 2 mg topical twice a day for 7 days, n = 5/group): (1.0 ± 0.3) × 10^6 CFU/g
healing of the infected skin ([9]; topical twice a day for 7 days, observation and H&E staining): showed the healing of the skin
stability in LB agar [10]: relatively stable
